Values quoted from earlier work in patent publication US6764831B2, “Methods and compositions for pain management” (priority 1998, dated 2004).

Legend:
[1] = injected into the brachial artery of humans
cholinesterase (ChE) = conditions: muscle relaxants used with anesthesia
[2] = tested on: ACh level in the extracellular space; conditions: injection into rats

CC(=O)OCC[N+](C)(C)C [ACh, acetylcholine]
pain produced on injection [1]: extreme pain was produced

COc1ccc(C[C@@H]2c3cc(OC)c(OC)cc3CC[N@+]2(C)CCC(=O)OCCCCCOC(=O)CC[N@@+]2(C)CCc3cc(OC)c(OC)cc3[C@H]2Cc2ccc(OC)c(OC)c2)cc1OC [NIMBEX]
effect on cholinesterase (ChE) (cholinesterase (ChE)): no effect

CC(=O)O[C@H]1C[C@@H]2CC[C@@H]3[C@H](CC[C@@]4(C)[C@H]3C[C@H]([N+]3(C)CCCCC3)[C@@H]4OC(C)=O)[C@@]2(C)C[C@@H]1N1CCCCC1.[Br-] [NOCURON]
effect on cholinesterase (ChE) (cholinesterase (ChE)): no effect

C=CC[N+]1([C@H]2C[C@H]3[C@@H]4CC[C@H]5C[C@H](O)[C@@H](N6CCOCC6)C[C@]5(C)[C@H]4CC[C@]3(C)[C@H]2OC(C)=O)CCCC1 [ROCURONIUM]
effect on cholinesterase (ChE) (cholinesterase (ChE)): no effect

C[N+](C)(C)CCOC(=O)CCC(=O)OCC[N+](C)(C)C [Succinylcholine]
effect on cholinesterase (ChE) (cholinesterase (ChE)): no effect

CCCCCCCNC(=O)Oc1ccc2c(c1)[C@]1(C)CCN(C)[C@@H]1N2C [heptylphysostigmine]
ACh level in the extracellular space [2]: elevation

CN(C)C(=O)Oc1cccc([N+](C)(C)C)c1 [neostigmine]
extracellular ACh level (extracellular ACh level): above detection limit | cholinesterase inhibition (cholinesterase): inhibit
